“Also recorded” adds a separate entry of the source.
What was measured:
[1] = available chlorine over one hour in mixtures of a chelator and a sodium hypochlorite solution, titration with sodium thiosulfate (FIGS. 2 and 3); type: physicochemical; conditions: for loss of available hypochlorite anions: admixture into sodium hypochlorite solution
From the text: To measure the amount of hypochlorite, it has to be transferred by acidification to chlorine, which oxidizes potassium iodide to iodine. The latter is then titrated with a sodium thiosulfate solution.
In particular, the chlorine reduction from a 9 weight percentage and 18 weight percentage of Na4HEDP with reference to the total weight of the sodium hypochlorite solution as well as the chlorine reduction from a 3 weight percentage and 18 weight percentage of Na4EDTA with reference to the total weight of the sodium hypochlorite solution, respectively, was monitored over one hour, which is the normal duration of an endodontic treatment. The Na4HEDP and the Na4EDTA were each dissolved in a sodium hypochlorite solution comprising 1 weight percentage of sodium hypochlorite with reference to the total weight of the sodium hypochlorite solution.
The amount of chlorine over time was compared with a control solution of 1 weight percentage of pure sodium hypochlorite. In order to determine the amount of the available chlorine, aliquots of each solution (approximately 0.5 grams) were removed after 1 minute, 10 minutes, 20 minutes, 30 minutes and 60 minutes and assessed for their amount of available chlorine using a titration apparatus. Thereby, a 0.1 molar sodium thiosulfate solution was used as titrator.
In FIG. 3, the same measurements are performed using the same amounts of Na4HEDP and Na4EDTA as in FIG. 2, whereby these chelators are each admixed into a NaOCl solution comprising 5 weight percentage of NaOCl.

[2] = evolution of the pH-value of calcium hydroxide with Na4HEDP in distilled water (FIG. 4); type: physicochemical; conditions: 1 gram calcium hydroxide and 0.1 gram Na4HEDP in 10 milliliter distilled water, 10 minutes
Method: FIG. 4 depicts the evolution of the pH-value over time determined for the admixture of Na4HEDP and calcium hydroxide in solid form and only calcium hydroxide in solid form, respectively, into distilled water. The solutions are prepared by mixing 1 gram of calcium hydroxide in solid form and 0.1 gram of Na4HEDP in a glass vial. 10 milliliter of distilled water was added, and the pH measurement was started immediately and continued for 10 minutes. As a control, the pH value of 1 gram pure calcium hydroxide dissolved in 10 milliliter of distilled water was recorded, too. […] Consequently, the addition of Na4HEDP to calcium hydroxide can trigger an earlier onset of the desired disinfecting effect. In addition, the binding capacity of Na4HEDP to Ca^2+ makes it easier to remove the calcium hydroxide slurry from the root canal system before the canal is filled with an alloplastic material.

[3] = 18 weight percentage chelator in 1 weight percentage NaOCl solution, after one hour
[4] = 18 weight percentage chelator in 1 weight percentage NaOCl solution, at the start

Structure (SMILES) | relative amount of chlorine compared to pure NaOCl control ([1]; 3 weight percentage chelator in 1 weight percentage NaOCl solution, after one hour) | relative amount of chlorine compared to pure NaOCl control ([1]; 3 weight percentage chelator in 1 weight percentage NaOCl solution, at the start) | relative amount of chlorine compared to pure NaOCl control [1, 3] | relative amount of chlorine compared to pure NaOCl control [1, 4] | loss of available hypochlorite anions ([1]; over the course of one hour) | amount of chlorine ([1]; chelator in 5 weight percentage NaOCl solution, after one hour) | relative amount of chlorine compared to pure NaOCl control ([1]; 9 weight percentage chelator in 1 weight percentage NaOCl solution, after one hour) | relative amount of chlorine compared to pure NaOCl control ([1]; 9 weight percentage chelator in 1 weight percentage NaOCl solution, at the start) | drop of the amount of chlorine ([1]; chelator in 5 weight percentage NaOCl solution, over the course of one hour) | pH value of the slurry compared to calcium hydroxide alone [2]
O=C([O-])CN(CCN(CC(=O)[O-])CC(=O)[O-])CC(=O)[O-].[Na+].[Na+].[Na+].[Na+] [Na4EDTA, reference compound] | below 25 weight percentage | about 95 weight percentage | below 25 weight percentage | about 75 weight percentage | pronounced loss | zero | – | – | – | –
CC(O)(P(=O)([O-])[O-])P(=O)([O-])[O-].[Na+].[Na+].[Na+].[Na+] [Na4HEDP, tetrasodium (1-hydroxyethane)-1,1′-di-phosphonate] | – | – | about 75 weight percentage | ~100 percentage | no significant loss; also recorded: does not cause any significant loss | – | about 90 weight percentage | ~100 percentage | less than 25 percentage | higher pH value which increases faster

— patent publication US10434038B2, “Solid phosphonate salts as an add-on in endodontics” (smartodont GmbH, priority 2016, dated 2019)
